# Assay results: ChEMBL document CHEMBL3639075, “Aryl-benzocycloalkyl amide derivatives” (2013)
# What was measured:
# B1 bradykinin receptor [1] = molecular target: T1, B1 bradykinin receptor (Homo sapiens, UniProt P46663); assay: Calcium Mobilization Assay: Calcium mobilization assay using Bradykinin-1 receptor.; assay type: functional
# T1 sequence (P46663 whole entry): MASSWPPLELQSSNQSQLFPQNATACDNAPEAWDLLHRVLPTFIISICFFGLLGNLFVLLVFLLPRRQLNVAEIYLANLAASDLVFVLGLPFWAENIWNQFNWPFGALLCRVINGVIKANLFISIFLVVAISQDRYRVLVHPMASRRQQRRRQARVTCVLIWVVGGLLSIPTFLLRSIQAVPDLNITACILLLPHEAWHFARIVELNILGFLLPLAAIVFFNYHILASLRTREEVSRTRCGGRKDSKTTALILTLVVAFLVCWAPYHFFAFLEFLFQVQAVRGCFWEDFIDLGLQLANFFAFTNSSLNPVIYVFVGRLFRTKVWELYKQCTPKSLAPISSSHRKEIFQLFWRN
# B1 bradykinin receptor [2] = molecular target: T1, B1 bradykinin receptor; assay: Binding Assay: Binding assay using Bradykinin-1 receptor.
smiles,measurement,setting,value
Cc1nc(-c2c(F)cc(Cl)cc2-c2ccc3c(c2)CC[C@@H]3NC(=O)C2(NC(=O)c3nnc(C)o3)CC2)no1,IC50,B1 bradykinin receptor [1],3.4 nM
same,Ki,B1 bradykinin receptor [2],9.5 nM
